Counter-ions that a name gives are not always drawn. Like-named read-outs stand apart in the source and are kept apart here.
Assays:
[1] = tested on: ventricular fibrillation induced by CaCl2; test: Calcium (CaCl2) induced ventricular fibrillation in the anaesthetized rat, Malinow's technique; type: in vivo; settings: for index LD50/AD50 (ventricular fibrillation): Table 2; for RELATIVE ACTIVITY (ventricular fibrillation): Table 2, relative to cetiedil = 1; for RELATIVE ACTIVITY (death): Table 3, relative to cetiedil = 1
Experimental: According to MALINOW, M. R., et coll. Acta. Physiol Latino. Americ.
Using the anaesthetized rat, 200 mg/kg of CaCl2 was injected two minutes after the substances to be tested. The ECG was recorded continuously in lead II.

[2] = tested on: chloroform-induced ventricular fibrillation; test: Chloroform-induced ventricular fibrillation in the mouse; type: in vivo
Text: In this technique first described by LAWSON, J. W. in J. Pharm. Exp. Ther. 1968, 160, 22 and Vargaftig, B. B. et al in Eur. J. Pharmacol. 1969, 6, 49, the inhalation of chloroform vapour produced in the mouse apnea followed by ventricular fibrillation.
The mechanism of this technique remains unknown.

in vivo = settings: mouse, iv
[3] = tested on: polymorphous arrhythmias induced by adrenaline petrol-ether; test: Polymorphous arrhythmias induced in the anaesthetised guinea-pig by adrenaline and petrol ether; type: in vivo; settings: for ED50: Cavia porcellus, ip, read-out: ED50 (dose decreasing by half the duration of the disturbances); for index I = LD50 IV/ED50: Table 1, adrenaline petrol-ether, guinea-pig ED50, mouse LD50; for RELATIVE ACTIVITY: Table 1, relative to cetiedil = 1
Text: Adrenaline in high dosage is a powerful arrhythmogenic stimulus to a myocardia induced by petrol ether, as recognized in the guinea-pig by LE MARECHAL J., Thesis Doct.

[4] = tested on: isolated guinea-pig atrial; test: Stimulated isolated guinea pig atrial (technique of Dawes); type: cell-based
Text: (§1) The technique of DAWES (modified by ALLIES ET AL.) was used with the isolated guinea-pig atrial, and the technique of DUCHENE-MARULLAZ, J. Pharmacol. Paris, 1970, 1, 539, in the anaesthetized dog. This method is used to study the permeability of atrio-ventricular conduction, and thus more precisely conduction at the level of Tawara's nod.

[5] = tested on: chloroform-induced ventricular fibrillation; settings: mouse, chloroform test, IP; other substances from Linee thesis 1975; cited from earlier work
rat aortic fragments = test: Contraction of rat aorta fragment induced by potassium depolarisation; type: cell-based; settings: mean ± SD, potassium depolarisation
Experimental: Fragments of aorta removed from rats are immersed in survival fluid in the presence of carbogene at 37° C. By modifying the ionic equilibrium of the survival medium, it was possible to study the effects of […] on contraction of the aortic fragments induced by depolarisation with potassium or calcium.

[6] = tested on: rabbit cornea oculo-palpebral reflex; type: in vivo; settings: for TOTAL DEGREE OF ANAESTHESIA FOR 60 minutes: rabbit cornea, 1.00 g./100, HCl salt, total 13 no anaesthesia, 1300 complete; for local anaesthetic effect compared with cetiedil 0.5%: rabbit
Text: For the purpose of this study, the classical technique of REGNIER J., Thesis Doct. […] This consists of repeating touching of the rabbit cornea until an oculo-palpebral reflex is obtained. It should be noted that […], in common with the reference substances, was used in the form of the HCl Salt.

[7] = tested on: ventricular tachycardia induced by Ouabain; test: Ouabain induced ventricular tachycardia in the dog (Lucchesi and Hardman); type: in vivo; settings: at the average effective dose
Text: The method used is that of […] and HARDMAN, J. Pharmacol. Exp. Ther. 1961, 132, 372-381. Ventricular tachycardia was obtained by the sequential administration of Ouabain until a permanent ventricular tachycardia developed. Following observation of the effect of the substance, the reappearance of this ventricular tachycardia following the injection of insulin was confirmed, thereby showing the persistence within the heart of a toxic dose of Ouabain (Average dose of Ouabain 71.25 γ kg IV).

[8] = tested on: atrio-ventricular conduction; test: Atrio-ventricular conduction in the anaesthetized dog (Duchene-Marullaz); type: in vivo
Text: as §1

[9] = Rattus norvegicus, iv, read-out: AD50 protection against death
[10] = Rattus norvegicus, iv, read-out: AD 50 protection against ventricular fibrillation
[11] = anaesthetized rat, CaCl2 200 mg/kg IV two minutes after substance, read-out: AD 50 protection against ventricular fibrillation
[12] = mouse, chloroform vapour inhalation, IP, read-out: ED50
[13] = guinea-pig, urethane 1.2 g/kg IP, substance 5 minutes before intoxication

Q: With `CC[C@H]1[C@@H]2C[C@H]3[C@@H]4N(C)c5ccccc5[C@]45C[C@@H]([C@H]2[C@H]5O)N3[C@@H]1O` [Ajmaline] as the compound, how does the ED50 [1, 9] read?
A: > 5 mg/kg

Q: What about the ED50 [1, 10] of the same compound?
A: 2.25 mg/kg

Q: What about the “index LD50/AD50 (ventricular fibrillation)” value [1] of the same compound?
A: 11,56

Q: And the “RELATIVE ACTIVITY (ventricular fibrillation)” value [1]?
A: 0,62

Q: What about the protection against death ([1]; rat, dose of 5 mg/kg) of the same compound?
A: none against death

Q: And the “protection against ventricular fibrillation” value ([1]; rat, dose of 5 mg/kg)?
A: protected all of the animals against ventricular fibrillation

Q: And the ED50 ([2]; Mus musculus, ip)?
A: 6.6 mg/kg

Q: And the LD50 (in vivo)?
A: 26 mg/kg

Q: And the ED50 [3]?
A: 0.6 mg/kg

Q: What about the “index I = LD50 IV/ED50” value [3] of the same compound?
A: 43.33

Q: And the “RELATIVE ACTIVITY” value [3]?
A: 0.91

Q: For `CC(C)N(CCC(C(N)=O)(c1ccccc1)c1ccccn1)C(C)C` (stereo not drawn) [DISOPYRAMIDE], which “% DECREASE SPONTANEOUS RATE” value ([4]; concentration 10^-5) is on record?
A: 8%

Q: What about the “% DECREASE m.f.s. (maximum frequency followed by the atrial)” value ([4]; concentration 10^-5) of the same compound?
A: 18%

Q: What about the “% DECREASE SPONTANEOUS RATE” value ([4]; concentration 10^-6) of the same compound?
A: 6%

Q: What about the “% DECREASE m.f.s. (maximum frequency followed by the atrial)” value ([4]; concentration 10^-6) of the same compound?
A: 6%

Q: Which results are given for `CCN(CC)CCNC(=O)c1ccc(N)cc1` [Procainamide]?
A: ED50 [1, 9]: 17 mg/kg; index LD50/AD50 (ventricular fibrillation) [1]: 7,24; RELATIVE ACTIVITY (ventricular fibrillation) [1]: 0,39; index LD50/AD50 (death) ([1]; Table 3): 6.18; RELATIVE ACTIVITY (death) [1]: 0.38; ED50 [1, 11]: 14.5 mg/kg; ED50 [2, 12]: 80 mg/kg; LD50 (in vivo): 105 mg/kg; ED50 [3, 13]: 1.4 mg/kg; index I = LD50 IV/ED50 [3]: 75.00; RELATIVE ACTIVITY [3]: 1.58

Q: Which ED50 [5] does the source give for `CN1[C@@H]2CC[C@H]1C[C@@H](OC(=O)C(CO)c1ccccc1)C2` (stereo partly drawn) [Atropine] here?
A: 100 mg/kg IP

Q: Which results are given for `CCN(CC)CCOC(=O)c1ccc(N)cc1` [PROCAINE]?
A: pD'2 (mean) (rat aortic fragments): 2.55 ± 0.06; TOTAL DEGREE OF ANAESTHESIA FOR 60 minutes [6]: 61.5; local anaesthetic effect compared with cetiedil 0.5% ([6]; 1 p.100): only half less active

Q: Which results are given for `CC(C)NCC(O)COc1cccc2ccccc12` (stereo not drawn) [Propranolol]?
A: ED50 [1, 9]: 3.9 mg/kg; RELATIVE ACTIVITY (ventricular fibrillation) [1]: 0,36; RELATIVE ACTIVITY (death) [1]: 0.35; ED50 [1, 11]: 3.25 mg/kg; % DECREASE m.f.s. (maximum frequency followed by the atrial) ([4]; concentration 10^-6): 34%; % DECREASE m.f.s. (maximum frequency followed by the atrial) ([4]; concentration 10^-7): 7%; ED50 [3, 13]: 0.38 mg/kg; RELATIVE ACTIVITY [3]: 1.22; TOTAL DEGREE OF ANAESTHESIA FOR 60 minutes [6]: 876.5; local anaesthetic effect compared with cetiedil 0.5% ([6]; in vivo): same effect

Q: Which “duration of return to sinus rhythm” value [7] does the source give for `C=C[C@H]1C[N@@]2CC[C@H]1C[C@@H]2[C@@H](O)c1ccnc2ccc(OC)cc12` [Quinidine sulfate, reference compound] here?
A: less than 30 min

Q: For `CN(C)CCCN1c2ccccc2CCc2ccccc21` [Imipramine], which ED50 [5] is on record?
A: 30 mg/kg IP

Q: For `COC(=O)[C@H]1[C@@H](OC(=O)c2ccccc2)C[C@@H]2CC[C@H]1N2C` [COCAINE], which “TOTAL DEGREE OF ANAESTHESIA FOR 60 minutes” value [6] is on record?
A: 706.4

Q: And the “local anaesthetic effect compared with cetiedil 0.5%” value ([6]; 1 p.100)?
A: same effect

Q: With `C=C[C@H]1C[N@@]2CC[C@H]1C[C@@H]2[C@@H](O)c1ccnc2ccc(OC)cc12` [Quinidine] as the compound, how does the ED50 [1, 9] read?
A: 8 mg/kg

Q: And the ED50 [1, 10]?
A: 5.5 mg/kg

Q: And the “% DECREASE SPONTANEOUS RATE” value ([4]; concentration 10^-5)?
A: 15%

Q: And the “% DECREASE m.f.s. (maximum frequency followed by the atrial)” value ([4]; concentration 10^-5)?
A: 25%

Q: What about the “% DECREASE SPONTANEOUS RATE” value ([4]; concentration 10^-6) of the same compound?
A: 3%

Q: And the “% DECREASE m.f.s. (maximum frequency followed by the atrial)” value ([4]; concentration 10^-6)?
A: 10%

Q: And the “% DECREASE SPONTANEOUS RATE” value ([4]; concentration 10^-7)?
A: 0%

Q: And the “effect on atrio-ventricular conduction after denervation” value ([8]; anaesthetized dog, denervated)?
A: Depression of atrio-ventricular conduction is significant and proportional to the dose administered

Q: What about the “effect on atrio-ventricular conduction” value ([8]; anaesthetized dog, intact) of the same compound?
A: not changed in the intact animal

Q: And the chronotropic effect ([8]; dog)?
A: positive or negative action according to whether the dog is intact or denervated

Q: What about the ED50 [2, 12] of the same compound?
A: 26 mg/kg

Q: What about the LD50 (in vivo) of the same compound?
A: 67 mg/kg

Q: Which ED50 [5] does the source give for `COC(=O)[C@@H]1[C@H]2C[C@H]3c4[nH]c5ccccc5c4CCN3C[C@@H]2CC[C@@H]1O` [Yohimbine] here?
A: 10 mg/kg IP
